Legend:
[1] = Analgesic activity (technique of Siegmund E. et al.); assay type: in vivo; details: po, read-out: DE50 mg/kg p.o.
Description: II a notamment été mis en évidence, par l'étude de plusieurs produits que les nouveaux dérivés de thiopyranopyrrole manifestent une activité analgésique dans la technique de Siegmund E. et coll., Proc. Soc. Exp. Biol. Med., 95, 729 (1957).

[2] = tested on: septide (agoniste de la substance P); experiment: Inhibition of septide-induced increase in capillary permeability (technique of A. Saria et al. adapted to the mouse); assay type: in vivo, souris; details: sc, capillary permeability increase caused by septide, read-out: DE50 mg/kg s.c.
Description: L'étude de plusieurs dérivés de thiopyranopyrrole de formule générale (I) dans la technique de A. Saria et coll., Arch. Pharmacol.,324, 212-218 (1983) adaptée à la souris a permis de mettre en évidence un effet inhibiteur de l'augmentation de la perméabilité capillaire entraîné par le septide (agoniste de la substance P, ce qui témoigne d'une activité anti-inflammatoire : […]

[3] = tested on: substance P; experiment: Antagonism of substance P-induced hypotension (technique of C.A. Maggi et al.); assay type: in vivo; details: rat; 1 mg/kg i.v./mn for 5 mn; hypotension induced by i.v. injection of 250 mg/kg of substance P
Description: L'injection de substance P chez l'animal provoque une hypotension. Les produits étudiés dans la technique de C.A. Maggi et coll., J. Auton. Pharmac., 7, 11-32 (1987) manifestent un effet antagoniste chez le rat vis-à-vis de cette hypotension. Notamment les produits administrés à la dose de 1 mg/kg i.v./mn, pendant 5 mn, provoquent un antagonisme de l'hypotension induite par une injection i.v. de […] de substance P.

`CN(C)CCCOc1ccccc1CC(=O)N1C[C@@H]2[C@H](C1)[S@+]([O-])CCC2(c1ccccc1)c1ccccc1` (racemic) [Exemple 7, {[(diméthylamino-3 propoxy-2)phényl]acétyl}-6 diphényl-4,4 oxyde-1 perhydrothiopyrano [2,3-c]pyrrole-(1RS,4aRS,7aRS)] gave an ED50 [1] of 3 mg/kg.

For `COc1ccccc1[C@H](C)C(=O)N1C[C@@H]2[C@H](C1)[S@+]([O-])CCC2(c1ccccc1)c1ccccc1` (single isomer, unassigned) [Exemple 10, [(-)-(méthoxy-2 phényl)-2 propionyl-(S) ] -6 diphényl-4,4 oxyde-1 erhydrothiopyrano[2,3-c]pyrrole-(1R*, 4aR*, 7aR*)], the ED50 [1] was 1.7 mg/kg, the ED50 [2] was < 0.1 mg/kg and the “% d'inhibition de l'hypotension” value [3] was 100%.

For `CN(C)CCCOc1ccccc1CC(=O)N1C[C@@H]2[C@H](C1)[S@+]([O-])CCC2(c1ccccc1)c1ccccc1` (single isomer, unassigned) [Exemple 8, (-)-{[(diméthylamino-3 propoxy-2)phényl]-2 acétyl}-6 diphényl-4,4 oxyde-1 perhydrothiopyrano [2,3-c]pyrrole-(1R*,4aR*,7aR*)], the ED50 [2] was 0.05 mg/kg and the “% d'inhibition de l'hypotension” value [3] was 100%.
